Measurements as given in patent US20060148023A1, “Affinity labeling of serine proteases for simultaneous detection of multiple serine protease activity levels” (priority 2001, published 2006).

What was measured:
Format in all cases: cell-based
Conditions in all cases: for FLCK RFU: green, ex 488 nm/em 535 nm; for FLCK RFU / SFCK RFU: average of 4 wells; for SFCK RFU: red, ex 590 nm/em 620 nm
Jurkat cells = assay: FLISP staining of Jurkat cells, fluorescence plate reader
Protocol: (§1) Preparation of reagents: Fluorescent inhibitors of serine proteases (FLISP) reagents, 5(6)-Carboxyfluoresceinyl-L-phenylalanylchloromethyl ketone (FFCK), 5(6)-carboxyfluoresceinyl-L-leucylchloromethyl ketone (FLCK), Sulforhodaminyl 101 -L-phenylalanylchloromethyl ketone (SFCK) and Sulforhodaminyl 101 -L-leucylchloromethyl ketone (SLCK) are dissolved initially in dimethyl sulfoxide (DMSO; Sigma) to yield a 10 mM concentration. Aliquots are made from this stock solution and stored frozen at −20° C. protected from light. The reagent stock of the FLCK is then diluted directly into the cell culture media to give a 1× working reagent concentration of 20 μM and the reagent stock of the SFCK is then diluted directly into the cell culture media to give a 1× working reagent concentration of 5 μM. Dilution of the reagent into aqueous (cell culture) media is done just prior to cell exposure to preserve the labile chloromethyl ketone reactivity of FLISP reagent.
(§2) Cells: Jurkat, HL-60 and U937 cells were obtained from American Type Culture Collection (ATCC; Rockville, Md.). They were cultured in 25 mL FALCON flasks (Becton Dickinson Co., Franklin Lakes, N.J.) using RPMI 1640 supplemented with 10% fetal calf serum, 100 units/mL penicillin, […] and 2 mM L-glutamine (all from Gibco/BRL Life Technologies, Inc., Grand Island, N.Y.) in a humidified incubator set to maintain 37.5° C. and 5 % CO2. At the onset of experiments, the cells were at an exponential and asynchronous growth phase with fewer than 5×10^5 cells per/mL in culture. To induce apoptosis the cells were treated with 0.15 μM DNA topoisomerase I inhibitor camptothecin (CPT; Sigma Chemical Co., St. Louis, Mo.) for 3 hours.
(§3) Cell staining and evaluation by fluorescence plate reader: The Jurkat, HL-60 and U937 cells from the untreated or CPT treated cultures were centrifuged (200 g, 5 min) and resuspended in PBS at approximately 10^6 cells per 5 ml volume. FLISP staining solutions were prepared by diluting 10 μL of a green 10 mM FLISP reagent stock solution (FLCK) and 2.5 μL of a red 10 mM FLISP reagent stock solution (SFCK) into 5 mL of culture medium yielding a final green FLISP concentration of 20 μM and a final red FLISP concentration of 5 μM. When detecting multiple serine proteases use different CMK labeled peptides i.e. FLCK and SFCK or FFCK and SLCK. The FLISP staining solution was removed by washing the cells in wash buffer (0.5% BSA in PBS +0.05% NaN3, pH 7.4) and centrifuging for 5 minutes at 200 g. The washing step was repeated two more times with fresh wash buffer. After the final wash the cells were resuspended in 5 mL wash buffer and 100 μL per were added to a 96 well black microtiter plate (4 wells were used for each sample). Green and red fluorescence were measured simultaneously on a Spectra MAX Gemini XS fluorescence plate reader (Molecular Devices). Green cell fluorescence (FLCK) was then measured using a 488 nm excitation, 535 nm emission with a 515 nm cutoff. Red cell fluorescence (SFCK) was then measured using a 590 nm excitation, 620 emission with a 610 nm cutoff.

HL-60 cells = assay: FLISP staining of HL-60 cells, fluorescence plate reader
Protocol: as §1, §2, §3

U937 cells = assay: FLISP staining of U937 cells, fluorescence plate reader
Protocol: as §1, §2, §3

Compound | FLCK RFU (Jurkat cells; Jurkat I (induced, apoptotic; 0.15 μM CPT 3 h), 20 μM) | FLCK RFU (Jurkat cells; Jurkat NI (non-induced), 20 μM) | FLCK Ratio of I/NI (Jurkat cells; Jurkat, induced/non-induced, 20 μM) | FLCK Ratio of I/NI (HL-60 cells; HL-60, induced/non-induced, 20 μM) | FLCK RFU (HL-60 cells; HL-60 I (induced, apoptotic; 0.15 μM CPT 3 h), 20 μM) | FLCK RFU (HL-60 cells; HL-60 NI (non-induced), 20 μM) | FLCK Ratio of I/NI (U937 cells; U937, induced/non-induced, 20 μM) | FLCK RFU (U937 cells; U937 I (induced, apoptotic; 0.15 μM CPT 3 h), 20 μM) | FLCK RFU (U937 cells; U937 NI (non-induced), 20 μM) | SFCK RFU (Jurkat cells; Jurkat I (induced, apoptotic; 0.15 μM CPT 3 h), 5 μM) | SFCK RFU (Jurkat cells; Jurkat NI (non-induced), 5 μM) | SFCK Ratio of I/NI (Jurkat cells; Jurkat, induced/non-induced, 5 μM) | SFCK Ratio of I/NI (HL-60 cells; HL-60, induced/non-induced, 5 μM) | SFCK RFU (HL-60 cells; HL-60 I (induced, apoptotic; 0.15 μM CPT 3 h), 5 μM) | SFCK RFU (HL-60 cells; HL-60 NI (non-induced), 5 μM) | SFCK Ratio of I/NI (U937 cells; U937, induced/non-induced, 5 μM) | SFCK RFU (U937 cells; U937 I (induced, apoptotic; 0.15 μM CPT 3 h), 5 μM) | SFCK RFU (U937 cells; U937 NI (non-induced), 5 μM)
5(6)-carboxyfluoresceinyl-L-leucylchloromethyl ketone [FLCK] | 13.291 RFU | 3.702 RFU | 3.59 | 1.59 | 7.552 RFU | 4.748 RFU | 3.70 | 8.208 RFU | 2.218 RFU |  |  |  |  |  |  |  |  | 
CCN(CC)c1ccc2c(-c3ccc(S(=O)(=O)NC(Cc4ccccc4)C(=O)CCl)cc3S(=O)(=O)[O-])c3ccc(=[N+](CC)CC)cc-3oc2c1 [SFCK, Sulforhodaminyl-L-phenylalanylchloromethyl ketone] |  |  |  |  |  |  |  |  |  | 74.348 RFU | 30.596 RFU | 2.43 | 1.28 | 49.045 RFU | 38.301 RFU | 1.82 | 44.245 RFU | 24.341 RFU
